Results reported in US20160304552A1, “MODIFIED NUCLEIC ACID MOLECULES AND USES THEREOF” (MODERNA THERAPEUTICS, INC., priority 2013, published 2016).

Key:
[1] = system: human PBMC; test: PBMC cytokine assay, interferon-alpha production (IFN-alpha multi-subtype ELISA); assay type: cell-based
Procedure: 50 mL of human blood from three donors was received from Research Blood Components (Brighton, Mass.) in sodium heparin tubes. […] The tubes were centrifuged at 2000 rpm for 30 minutes with low acceleration and braking (Thermo, Waltham, Mass., 75004506). The tubes were removed and the buffy coat PBMC layers were gently transferred to a fresh 50 mL conical and washed with DPBS. The tubes were centrifuged at 1450 rpm for 10 minutes. The supernatant was aspirated and the PBMC pellets were resuspended and washed in 50 mL of DPBS. The tubes were centrifuged at 1450 rpm for 10 minutes. […] The cell suspensions were adjusted to a concentration of 3.0×10^6 cells/mL live cells. […] Within 30 minutes, transfection mixtures were added to each well at a volume of 50 μL per well. […] The transfection mixtures were then transferred to each of the human PBMC plates at 50 μL per well (6 wells per mRNA sample). The plates were then incubated at 37° C. […] In order to harvest the supernatant, plates were centrifuged at 1450 rpm for 5 min in a swinging plate rotor. The supernatant of 6 wells transfected with the same mRNA was carefully harvested and pooled in a single well of a fresh 96-well plate. Supernatants were either frozen or used fresh until ELISA analysis was done. The ability of unmodified and modified mRNA to trigger innate immune recognition as measured by interferon-alpha production.

[2] = system: Rabbit Reticulocyte Lysate; test: In vitro translation screen, human GCSF modRNA (GCSF ELISA); assay type: biochemical; conditions: Table 20; 250 ng modRNA, 45 min, 30° C.
Procedure: (§1) The in vitro translation assay was done with the Rabbit Reticulocyte Lysate (nuclease-treated) kit (Promega, Madison, Wis.; Cat. #L4960) according to the manufacturer's instructions. The reaction buffer was a mixture of equal amounts of the amino acid stock solutions devoid of Leucine or Methionine provided in the kit.
(§2) The modRNAs of firefly Luciferase, human GCSF and human EPO, harboring chemical modifications on either the bases or the ribose units, were diluted in sterile nuclease-free water to a final concentration of 250 ng in 2.5 ul (Stock 100 ng/μl). The modRNA (250 ng) was added to the mixture of freshly prepared Rabbit Reticulocyte Lysate and reaction buffer.
(§3) Aliquots of the in vitro translation reaction containing human GCSF modRNA or human EPO mRNA were transferred and analyzed with a human GCSF-specific or EPO ELISA kit (both from R&D Systems, Minneapolis, Minn.; Cat. #s SCS50, DEP00 respectively) according to the manufacturer instructions. All samples were diluted until the determined values were within the linear range of the human GCSF or EPO ELISA standard curve.

[3] = system: Rabbit Reticulocyte Lysate; test: In vitro translation screen, firefly Luciferase modRNA (luciferase assay, relative light units); assay type: biochemical; conditions: Table 20; 250 ng modRNA, 45 min, 30° C.
Procedure: as §1, §2
After 45 min incubation, the reaction was stopped by placing the plate on ice. Aliquots of the in vitro translation reaction containing luciferase modRNA were transferred to white opaque polystyrene 96-well plates (Corning, Manassas, Va.; Cat. # CLS3912) and combined with 100 ul complete luciferase assay solution (Promega, Madison, Wis.). The volumes of the in vitro translation reactions were adjusted or diluted until no more than 2 million relative light units per well were detected for the strongest signal producing samples. […] The plate reader was a BioTek Synergy H1 (BioTek, Winooski, Vt.).

[4] = system: HeLa cells; test: Transfection in HeLa cells, Luciferase modRNA (luciferase assay, relative light units); assay type: cell-based, human; conditions: Table 22, 83 ng modRNA, Lipofectamine 2000, 18 h to 22 h
Procedure: (§4) The day before transfection, 20.000 HeLa cells (ATCC no. CCL-2; Manassas, Va.) were harvested by treatment with Trypsin-EDTA solution (LifeTechnologies, Grand Island, N.Y.) and seeded in a total volume of 100 ul EMEM medium (supplemented with 10% FCS and 1× Glutamax) per well in a 96-well cell culture plate (Corning, Manassas, Va.). The cells were grown at 37° C. in 5% CO2 atmosphere overnight. Next day, 83 ng of Luciferase modRNA or 250 ng of human GCSF modRNA, harboring chemical modifications on the bases or the ribose units, were diluted in 10 ul final volume of OPTI-MEM (LifeTechnologies, Grand Island, N.Y.). Lipofectamine 2000 (LifeTechnologies, Grand Island, N.Y.) was used as transfection reagent and 0.2 μl were diluted in 10 ul final volume of OPTI-MEM. After 5 min incubation at room temperature, both solutions were combined and incubated additional 15 min at room temperature. Then the 20 μl were added to the 100 ul cell culture medium containing the HeLa cells. The plates were then incubated as described before.
After 18 h to 22 h incubation, cells expressing luciferase were lysed with 100 μl Passive Lysis Buffer (Promega, Madison, Wis.) according to manufacturer instructions. Aliquots of the lysates were transferred to white opaque polystyrene 96-well plates (Corning, Manassas, Va.) and combined with 100 ul complete luciferase assay solution (Promega, Madison, Wis.). The lysate volumes were adjusted or diluted until no more than 2 mio relative light units per well were detected for the strongest signal producing samples. […] The plate reader was a BioTek Synergy H1 (BioTek, Winooski, Vt.).

[5] = system: Rabbit Reticulocyte Lysate; test: In vitro translation screen, human EPO modRNA (EPO ELISA); assay type: biochemical; conditions: Table 20; 250 ng modRNA, 45 min, 30° C.
Procedure: as §1, §2, §3

[6] = molecular target: T7 RNA polymerase (Escherichia phage T7, UniProt P00573); test: In vitro transcription yields of modified mRNA; assay type: biochemical; conditions: for EPO In Vitro Transcription yield: EPO mRNA made with the modified NTP(s); for GCSF In Vitro Transcription yield: GCSF mRNA made with the modified NTP(s); for Luc In Vitro Transcription yield: Luciferase mRNA made with the modified NTP(s)
[7] = system: HeLa cells; test: Transfection in HeLa cells, human EPO modRNA (EPO ELISA of supernatant); assay type: cell-based; conditions: Table 22, 18 h to 22 h
[8] = system: HeLa cells; test: Transfection in HeLa cells, human GCSF modRNA (GCSF ELISA of supernatant); assay type: cell-based; conditions: Table 22, 250 ng modRNA, 18 h to 22 h
Procedure: as §4
After 18 h to 22 h incubation, cell culture supernatants of cells expressing human GCSF or human EPO were collected and centrifuged at 10.000 rcf for 2 min. The cleared supernatants were transferred and analyzed with a human GCSF-specific or EPO ELISA kit (both from R&D Systems, Minneapolis, Minn.; Cat. #s SCS50, DEP00, respectively) according to the manufacturer instructions. All samples were diluted until the determined values were within the linear range of the human GCSF or EPO ELISA standard curve.

Chain of T7 RNA polymerase (P00573 whole entry): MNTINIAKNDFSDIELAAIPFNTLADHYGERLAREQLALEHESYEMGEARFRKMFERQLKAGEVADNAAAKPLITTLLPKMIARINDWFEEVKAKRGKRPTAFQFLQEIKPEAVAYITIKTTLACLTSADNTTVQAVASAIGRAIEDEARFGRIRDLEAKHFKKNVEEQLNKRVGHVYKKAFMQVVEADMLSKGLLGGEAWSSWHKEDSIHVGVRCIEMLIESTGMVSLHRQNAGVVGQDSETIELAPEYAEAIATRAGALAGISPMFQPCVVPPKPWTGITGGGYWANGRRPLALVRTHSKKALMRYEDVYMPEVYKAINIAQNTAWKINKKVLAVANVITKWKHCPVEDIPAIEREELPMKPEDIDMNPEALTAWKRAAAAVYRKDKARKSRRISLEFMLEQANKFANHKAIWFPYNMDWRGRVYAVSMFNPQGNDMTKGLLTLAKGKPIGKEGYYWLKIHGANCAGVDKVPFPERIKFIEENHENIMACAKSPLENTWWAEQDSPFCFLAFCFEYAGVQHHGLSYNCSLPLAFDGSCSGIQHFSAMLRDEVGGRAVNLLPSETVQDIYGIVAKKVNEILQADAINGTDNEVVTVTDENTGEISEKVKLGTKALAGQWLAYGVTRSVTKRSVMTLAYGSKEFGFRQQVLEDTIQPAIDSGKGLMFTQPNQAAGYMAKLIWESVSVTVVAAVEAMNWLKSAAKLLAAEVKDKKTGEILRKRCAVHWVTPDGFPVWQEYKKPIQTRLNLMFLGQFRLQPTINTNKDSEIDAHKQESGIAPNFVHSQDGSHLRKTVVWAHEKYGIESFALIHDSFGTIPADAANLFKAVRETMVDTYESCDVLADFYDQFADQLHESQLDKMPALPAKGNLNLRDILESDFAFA

SMILES | interferon-alpha concentration in PBMC supernatant ([1]; Luc mRNA, 1st value in cell) | interferon-alpha concentration in PBMC supernatant ([1]; Luc mRNA, 2nd value in cell) | interferon-alpha concentration in PBMC supernatant ([1]; Luc mRNA, 3rd value in cell) | interferon-alpha concentration in PBMC supernatant ([1]; hEPO mRNA, 1st value in cell) | interferon-alpha concentration in PBMC supernatant ([1]; hEPO mRNA, 2nd value in cell) | interferon-alpha concentration in PBMC supernatant ([1]; hEPO mRNA, 3rd value in cell) | interferon-alpha concentration in PBMC supernatant ([1]; hGCSF mRNA, 1st value in cell) | interferon-alpha concentration in PBMC supernatant ([1]; hGCSF mRNA, 2nd value in cell) | interferon-alpha concentration in PBMC supernatant ([1]; hGCSF mRNA, 3rd value in cell) | GCSF Expression [2] | Luc Expression (RLUs) [3] | Luc Expression (RLUs) [4] | Epo Expression [5] | EPO In Vitro Transcription yield [6] | GCSF In Vitro Transcription yield [6] | Luc In Vitro Transcription yield [6] | Epo Expression [7] | GCSF Expression [8]
Nc1nc(=O)n([C@@H]2O[C@H](COP(=O)(O)OP(=O)(O)OP(=O)(O)O)C(O)C2O)cc1Br (stereo in doubt) [03601014008 (379), 5-Bromo-CTP] | 5470 pg/mL | 1080 pg/mL | 5420 pg/mL | 2300 pg/mL | 487.5 pg/mL | 500 pg/mL | 2808.33 pg/mL | 2266.67 pg/mL | 1650 pg/mL | 13510 pg/mL | 194900 RLUs | 125700 RLUs | 8581 pg/mL | 0.3454 mg | 0.3685 mg | 0.5161 mg | 3263000 pg/mL | 1003000 pg/mL
COc1cn([C@@H]2O[C@H](COP(=O)(O)OP(=O)(O)OP(=O)(O)O)C(O)C2O)c(=O)[nH]c1=O (stereo in doubt) [Compound 00901013007, 5-methoxy-UTP] | 390 pg/mL | -70 pg/mL | -170 pg/mL | -210 pg/mL | 162.5 pg/mL | 150 pg/mL | 350 pg/mL | -41.66 pg/mL | 40 pg/mL | 26440 pg/mL | 306600 RLUs | 31580 RLUs | 17530 pg/mL | 0.1727 mg | 0.1546 mg | 0.3817 mg | 1116000 pg/mL | 1399000 pg/mL
CC(=O)Nc1ccn([C@@H]2O[C@H](COP(=O)(O)OP(=O)(O)OP(=O)(O)O)C(O)C2O)c(=O)n1 (stereo in doubt) [Compound 00901014007, N4-Ac-CTP] | 7170 pg/mL | 2500 pg/mL | 5879 pg/mL | 4050 pg/mL | 2137.5 pg/mL | 5850 pg/mL | 5683.33 pg/mL | 4883.33 pg/mL | 4590 pg/mL | 8794 pg/mL | 167600 RLUs | 141300 RLUs | 8675 pg/mL | 0.4351 mg | 0.3658 mg | 0.4394 mg | 2907000 pg/mL | 2094000 pg/mL
